# Laboratory results as given in patent EP3061750A1, “PYRAZOLE AMIDE COMPOUND CONTAINING DIPHENYL ETHER, AND APPLICATION THEREOF, AND PESTICIDE COMPOSITION” (Central China Normal University, priority 2013, dated 2015).
# How the values were obtained:
# [1] = tested on: Rice sheath blight (Rhizoctonia solani); assay: pot in vivo assay of bactericidal activity, rice sheath blight
# Excerpt: (§1) This test is used to determine the bactericidal activity of the compounds prepared in Example 1, Preparation Examples 1 and 2.
# (§2) The targets used in the test example are rice sheath blight and cucumber powdery mildew.
# Test Method: According to "Standard Practice for determination of pesticide biological activity (SOP)", pyrazole amide compound containing diphenyl ether was dispensed to 5% emulsifiable concentrates (hereinafter referred to as 5% EC), the […] method (pot in vivo assay). The screening results on the two test targets of the compounds prepared in Example 1, Preparation Examples 1 and 2 were shown in Table 4.
# Rice sheath blight (Rhizoctonia solani)
# Two potted rice seedlings with uniform growth in true leaf stage were chosen, and dried by air after spray treatment. The side of bacteria cake with mycelium was closely attached on the leaves, after cultured at 22-26 °C under dark light in a moisture preserving manner for 24h, then cultured with natural light for about 4 days. The diameter of disease spot of each inoculating point was measured by using a caliper after the control material was fully attacked by disease, and the control effect was calculated.
# (§3) Investigation method and grading standard adopted "Guidelines for the field efficacy trials of pesticides", and the control effect was calculated with the disease index. The disease index = Σ(number of diseased leaves at each grade×relative grade value) × 100/(total number of leaves×9); [formula] Control effect (%) = (disease index of control−disease index of treated) × 100/disease index of control. [formula]
# succinate dehydrogenase = target: T1, succinate dehydrogenase (Sus scrofa, UniProt A5GZW8+D0VWV4+Q007T0); assay: inhibitory activity on succinate dehydrogenase (DCIP reduction at 600 nm); format: biochemical, pig
# T1 construct: succinate dehydrogenase, which was isolated from pig hearts; from tissue; host or cells: pig heart
# T1 sequence (Q007T0 29-280): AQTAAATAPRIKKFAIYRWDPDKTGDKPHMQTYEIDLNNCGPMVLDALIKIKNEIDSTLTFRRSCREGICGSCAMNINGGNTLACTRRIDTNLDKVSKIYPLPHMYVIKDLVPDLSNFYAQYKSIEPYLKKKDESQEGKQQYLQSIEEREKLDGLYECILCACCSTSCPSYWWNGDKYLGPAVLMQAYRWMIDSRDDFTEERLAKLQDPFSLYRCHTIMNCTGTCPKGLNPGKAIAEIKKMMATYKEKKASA
# T1 sequence (D0VWV4 30-169): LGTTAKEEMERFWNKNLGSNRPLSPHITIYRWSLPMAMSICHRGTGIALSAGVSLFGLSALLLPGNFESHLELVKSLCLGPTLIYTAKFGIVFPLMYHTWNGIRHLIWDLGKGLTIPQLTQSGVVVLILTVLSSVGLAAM
# T1 sequence (A5GZW8 57-159 limits assumed): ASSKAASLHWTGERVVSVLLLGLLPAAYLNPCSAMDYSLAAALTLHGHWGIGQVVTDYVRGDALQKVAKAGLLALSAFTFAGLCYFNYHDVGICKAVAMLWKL
# T1 sequence (Q0QF01 43-664 partner): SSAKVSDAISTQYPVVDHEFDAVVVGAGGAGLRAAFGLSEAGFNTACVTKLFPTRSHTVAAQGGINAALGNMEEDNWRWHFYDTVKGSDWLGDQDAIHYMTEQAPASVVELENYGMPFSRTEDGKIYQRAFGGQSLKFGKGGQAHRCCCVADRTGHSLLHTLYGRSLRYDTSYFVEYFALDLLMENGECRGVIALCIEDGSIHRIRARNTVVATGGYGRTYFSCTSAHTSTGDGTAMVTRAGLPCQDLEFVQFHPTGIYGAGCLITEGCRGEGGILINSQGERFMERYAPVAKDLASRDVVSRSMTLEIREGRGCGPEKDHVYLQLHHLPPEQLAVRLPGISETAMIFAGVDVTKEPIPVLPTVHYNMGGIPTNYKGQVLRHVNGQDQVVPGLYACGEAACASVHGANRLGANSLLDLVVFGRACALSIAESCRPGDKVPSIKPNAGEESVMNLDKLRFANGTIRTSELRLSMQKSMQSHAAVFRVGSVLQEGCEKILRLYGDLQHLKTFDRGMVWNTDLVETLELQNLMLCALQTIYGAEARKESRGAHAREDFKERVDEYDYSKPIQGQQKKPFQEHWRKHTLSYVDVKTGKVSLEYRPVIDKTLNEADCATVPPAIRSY
# Description: This test was used to determine the inhibitory activity on the succinate dehydrogenase of the compounds prepared in Example 1, Preparation Examples 1 and 2 .
# The enzyme used in the test example was succinate dehydrogenase, which was isolated from pig hearts.
# Test Method: total volume was 1.8ml, the system comprised 100mM Na2HPO4-NaH2PO4 buffer (pH7.4), 0.3mM EDTA, 20mM sodium succinate, 53µM DCIP (2,6-dichloro indophenol sodium), 2nM succinate dehydrogenase. In water bath with 23 °C of constant temperature and 600rpm magnetic stirring, the reduction of the light absorption of substrate DCIP was monitored at a wavelength of 600nm, the experimental points within the linear range were collected, that is, the experimental points in which the consumption of substrate was controlled not exceeding 5% were collected. The molar extinction coefficient of DCIP was 21mM^-1cm^-1. The reduction amount of DCIP during the reaction time was calculated and linear slope was fitted, and then the initial velocity of the reaction was obtained by deducting the baseline slope.
# [2] = tested on: Cucumber powdery mildew (Sphaerotheca uliginea); assay: pot in vivo assay of bactericidal activity, cucumber powdery mildew
# Excerpt: as §1, §2
# Test Method: According to "Standard Practice for determination of pesticide biological activity (SOP)", pyrazole amide compound containing diphenyl ether was dispensed to 5% emulsifiable concentrates (hereinafter referred to as 5% EC), […] method (pot in vivo assay). The screening results on the two test targets of the compounds prepared in Example 1, Preparation Examples 1 and 2 were shown in Table 4.
# Cucumber powdery mildew (Sphaerotheca uliginea)
# A cucumber seedling with uniform growth in true leaf stage was chosen, and dried in shade for 24h after spray treatment. Fresh cucumber powdery mildew spores on the cucumber leaves were collected and washed, and filtered through a double gauze to prepare a spore suspension with concentration of about 100,000 / ml, then spray inoculation was applied. The test materials inoculated were moved into artificial climate with relative humidity of 60-70% and temperature of 21-23 °C (indoor lighting), after about 10 days, investigating and grading were carried out according to the incidence of the blank control, and the control effect was calculated according to the disease index.
# as §3
smiles,measurement,setting,value
Cn1cc(C(=O)Nc2ccccc2Oc2ccc(C(F)(F)F)cc2Cl)c(C(F)F)n1 [Compound II],pest or weed control at 200 µg/mL,"[1]; Rhizoctonia solani, concentration 200 mg/L, 5% EC, pot, read-out: Efficacy(%) rice sheath blight",100%
same,efficacy on rice sheath bilght(%),[1]; concentration 0.75 mg/L,43.75%
same,efficacy on rice sheath bilght(%),[1]; concentration 1.5 mg/L,55.34%
same,efficacy on rice sheath bilght(%),[1]; concentration 3.125 mg/L,68.68%
same,efficacy on rice sheath bilght(%),[1]; concentration 6.25 mg/L,70.43%
same,efficacy on rice sheath bilght(%),[1]; concentration 12.5 mg/L,94.62%
same,efficacy on rice sheath bilght(%),[1]; concentration 25 mg/L,98.66%
same,efficacy on rice sheath bilght(%),[1]; concentration 50 mg/L,100%
same,efficacy on rice sheath bilght(%),[1]; concentration 100 mg/L,100%
same,IC50,succinate dehydrogenase,0.0484 ± 0.00171 µM
same,inhibition at 0.01 µM,"succinate dehydrogenase; concentration 0.01 µM, read-out: inhibition ratio(%)",11.7%
same,inhibition at 0.02 µM,"succinate dehydrogenase; concentration 0.02 µM, read-out: inhibition ratio(%)",20.8%
same,inhibition at 0.03 µM,"succinate dehydrogenase; concentration 0.03 µM, read-out: inhibition ratio(%)",31.8%
same,inhibition at 0.05 µM,"succinate dehydrogenase; concentration 0.05 µM, read-out: inhibition ratio(%)",47.1%
same,inhibition at 0.1 µM,"succinate dehydrogenase; concentration 0.1 µM, read-out: inhibition ratio(%)",60.7%
same,inhibition at 0.2 µM,"succinate dehydrogenase; concentration 0.2 µM, read-out: inhibition ratio(%)",75.3%
same,inhibition at 0.5 µM,"succinate dehydrogenase; concentration 0.5 µM, read-out: inhibition ratio(%)",83.8%
same,inhibition at 1 µM,"succinate dehydrogenase; concentration 1 µM, read-out: inhibition ratio(%)",91.4%
same,inhibition at 10 µM,"succinate dehydrogenase; concentration 10 µM, read-out: inhibition ratio(%)",97.9%
same,inhibition at 50 µM,"succinate dehydrogenase; concentration 50 µM, read-out: inhibition ratio(%)",100%
same,pest or weed control at 200 µg/mL,"[2]; Cucumis sativus, concentration 200 mg/L, 5% EC, pot, read-out: Efficacy(%) cucumber powery mildew",100%
same,efficacy on cucumber powery mildew(%),[2]; concentration 6.25 mg/L,0%
same,efficacy on cucumber powery mildew(%),[2]; concentration 12.5 mg/L,66.67%
same,efficacy on cucumber powery mildew(%),[2]; concentration 25 mg/L,94.44%
same,efficacy on cucumber powery mildew(%),[2]; concentration 50 mg/L,100%
same,efficacy on cucumber powery mildew(%),[2]; concentration 100 mg/L,100%
